Our source for the inhibition values is EP4786487A1, “PEPTIDE” (Peptidream Inc, priority 2023, dated 2025).

Starred links: 1 amine or outer side, 2 acyl side, 3 side chain; linkers in the order of their positions; H or OH if unused. Positions of bridges follow the written chain, without caps; N, C: chain ends. Non-standard residues stand in square brackets, D forms with d. Residues, ends and D or L forms follow the SMILES beside them. *: point of attachment. Phe(3-OCH2COOH) = N[C@@H](Cc1cccc(OCC(=O)O)c1)C(=O)O; X15 = O=C([C@H](Cc1ccc(-c2ccccn2)cc1)N[*:1])[*:2]; Phe(4-CONH2) = NC(=O)c1ccc(C[C@H](N)C(=O)O)cc1; Phe(4-COOH) = N[C@@H](Cc1ccc(C(=O)O)cc1)C(=O)O; X14 = CCc1cccc(C[C@@H](C(=O)[*:2])N(C)[*:1])c1; Trp(7-aza) = N[C@@H](Cc1c[nH]c2ncccc12)C(=O)O; Tyr(Ph) = N[C@@H](Cc1ccc(Oc2ccccc2)cc1)C(=O)O; NMePhe(3-Me) = CN[C@@H](Cc1cccc(C)c1)C(=O)O; Bip = N[C@@H](Cc1ccc(-c2ccccc2)cc1)C(=O)O; Phe(3-OMe) = COc1cccc(C[C@H](N)C(=O)O)c1; Gly(N(CH2)3COOH) = O=C(O)CCCNCC(=O)O; NMeY = CN[C@@H](Cc1ccc(O)cc1)C(=O)O; NMeF = CN[C@@H](Cc1ccccc1)C(=O)O; 4Pal = N[C@@H](Cc1ccncc1)C(=O)O; Carboxymethyl = O=C(O)C*; NMeA = CN[C@@H](C)C(=O)O; Sar = CNCC(=O)O

Assay [1] addresses T1, GDF-11 (Homo sapiens, UniProt O95390).
T1 construct: purchased R&D systems 1958-GD-G8/CF
T1 sequence (O95390 299-407): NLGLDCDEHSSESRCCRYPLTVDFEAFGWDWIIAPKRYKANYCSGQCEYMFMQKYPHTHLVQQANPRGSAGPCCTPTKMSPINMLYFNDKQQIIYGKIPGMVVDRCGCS
The assay is described as follows: HepG2 reporter gene assay, Evaluation Procedure (2): 2-concentrations assay, GDF-11 inhibition. It is filed as cell-based. Particulars: GDF-11 10 ng/mL; for inhibition at 0.03 µM: HepG2, peptide 30nM, read-out: GDF11 Inhibition 30nM; for inhibition at 0.1 µM: HepG2, peptide 100nM, read-out: GDF11 Inhibition 100nM. Summed up: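 HepG2 cells carrying the transfected pGL3(CAGA)12-luc reporter, a pGL3 vector with luciferase placed downstream of 12 CAGA repeats, were stimulated with GDF-11 at a final 10 ng/mL together with test peptide. Blank wells received no GDF-11 and no peptide. Plates were incubated 20 to 24 hours at 37°C with 5% CO2. Luminescence from One-Glo substrate was read to calculate percent inhibition.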
A general note: Reporter assays use an easily measured gene product as a stand-in for the process of interest.

Assay [2] addresses T2, Myostatin (Homo sapiens, UniProt O14793).
T2 construct: active myostatin (also called mature myostatin) is a homodimer consisting of two C-terminal growth factor domains; purchased R&D systems 788-G8/CF
T2 sequence (O14793 267-375): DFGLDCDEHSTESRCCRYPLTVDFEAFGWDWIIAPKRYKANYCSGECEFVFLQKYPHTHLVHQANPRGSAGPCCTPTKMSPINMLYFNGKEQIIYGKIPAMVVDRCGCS
The assay is described as follows: HepG2 reporter gene assay, Evaluation Procedure (2): 2-concentrations assay, myostatin inhibition. It is filed as cell-based. The settings on record: Myostatin 10 ng/mL, HepG2; for inhibition at 0.03 µM: peptide 30nM, read-out: Myostatin Inhibition 30nM; for inhibition at 0.1 µM: peptide 100nM, read-out: Myostatin Inhibition 100nM. Summed up:
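Myostatin inhibition was measured in a luciferase reporter assay using HepG2 cells transfected with a pGL3 vector containing 12 CAGA repeats upstream of luciferase. After 20 to 24 hours with 10 ng/mL myostatin, cells received One-Glo:PBS (1:1) at 100 µL/well, were shaken for 5 min, and 20 µL/well was moved to 384-well plates and read on an Envision 2104.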

As a reminder, the inhibition is the relative decrease from the control value, in per cent. Take `CC[C@H](C)[C@@H]1NC(=O)[C@H](Cc2ccccc2)N(C)C(=O)[C@H](Cc2ccc(O)cc2)NC(=O)[C@H](Cc2c[nH]c3ncccc23)NC(=O)[C@H](C)NC(=O)CN(CCCC(=O)O)C(=O)CSC[C@H](C(=O)N[C@H](CO)C(=O)N[C@H](CO)C(=O)N[C@H](CO)C(=O)N[C@H](CCCCN)C(=O)O)NC(=O)[C@H](Cc2ccccc2)N(C)C(=O)[C@H](C)N(C)C(=O)[C@H](CC(C)C)NC(=O)[C@H](Cc2ccccc2)N(C)C(=O)[C@H](CCCNC(=N)N)NC(=O)[C@H](Cc2ccc(C(=O)O)cc2)NC(=O)[C@H](Cc2ccccc2)NC(=O)CN(C)C1=O` [Myostatin_99_v37] ({CH2CO}-[Gly(N(CH2)3COOH)]A[Trp(7-aza)]Y[NMeF]I[Sar]F[Phe(4-COOH)]R[NMeF]L[NMeA][NMeF][dC][dS][dS][dS][dK]-OH; thioether N-15): in assay [1], the inhibition at 0.03 µM is 0% and the inhibition at 0.1 µM worked out at 0%. In assay [2], the inhibition at 0.03 µM came to 69% and the inhibition at 0.1 µM was determined as 88%.
Take `CC[C@H](C)[C@@H]1NC(=O)[C@H](Cc2ccccc2)N(C)C(=O)[C@H](Cc2ccc(O)cc2)NC(=O)[C@H](Cc2c[nH]c3ncccc23)NC(=O)[C@H](C)NC(=O)CN(CCCC(=O)O)C(=O)CSC[C@H](C(=O)N[C@H](CO)C(=O)N[C@H](CO)C(=O)N[C@H](CO)C(=O)N[C@H](CCCCN)C(=O)O)NC(=O)[C@H](Cc2ccccc2)N(C)C(=O)[C@H](C)N(C)C(=O)[C@H](CC(C)C)NC(=O)[C@H](Cc2ccccc2)N(C)C(=O)[C@H](CCCNC(=N)N)NC(=O)[C@H](Cc2ccc(C(=O)O)cc2)NC(=O)[C@H](Cc2ccncc2)NC(=O)CN(C)C1=O` [Myostatin_99_v38] ({CH2CO}-[Gly(N(CH2)3COOH)]A[Trp(7-aza)]Y[NMeF]I[Sar][4Pal][Phe(4-COOH)]R[NMeF]L[NMeA][NMeF][dC][dS][dS][dS][dK]-OH; thioether N-15): in assay [1], the inhibition at 0.03 µM was found to be 0% and the inhibition at 0.1 µM was 11%. In addition, in assay [2], the inhibition at 0.03 µM stood at 40% and the inhibition at 0.1 µM is 80%.
The corresponding values for `CC[C@H](C)[C@@H]1NC(=O)[C@H](Cc2ccccc2)N(C)C(=O)[C@H](Cc2ccc(O)cc2)NC(=O)[C@H](Cc2c[nH]c3ncccc23)NC(=O)[C@H](CCC(=O)O)NC(=O)[C@H](C)NC(=O)CSC[C@H](C(=O)N[C@H](CO)C(=O)N[C@H](CO)C(=O)N[C@H](CO)C(=O)N[C@H](CCCCN)C(=O)O)NC(=O)[C@H](Cc2ccccc2)N(C)C(=O)[C@H](C)N(C)C(=O)[C@H](CC(C)C)NC(=O)[C@H](Cc2ccccc2)N(C)C(=O)[C@H](CCCNC(=N)N)NC(=O)[C@H](Cc2ccc(C(=O)O)cc2)NC(=O)[C@H](Cc2ccccc2)NC(=O)CN(C)C1=O` [Myostatin_99_v39] ({CH2CO}-AE[Trp(7-aza)]Y[NMeF]I[Sar]F[Phe(4-COOH)]R[NMeF]L[NMeA][NMeF][dC][dS][dS][dS][dK]-OH; thioether N-15) are 0%, 11%, 39% and 79%.
Consider `CC[C@H](C)[C@@H]1NC(=O)[C@H](Cc2ccccc2)N(C)C(=O)[C@H](Cc2ccc(O)cc2)NC(=O)[C@H](Cc2c[nH]c3ncccc23)NC(=O)[C@H](CCC(=O)O)NC(=O)[C@H](C)NC(=O)CSC[C@H](C(=O)N[C@H](CO)C(=O)N[C@H](CO)C(=O)N[C@H](CO)C(=O)N[C@H](CCCCN)C(=O)O)NC(=O)[C@H](Cc2ccccc2)N(C)C(=O)[C@H](C)N(C)C(=O)[C@H](CC(C)C)NC(=O)[C@H](Cc2ccccc2)N(C)C(=O)[C@H](CCCNC(=N)N)NC(=O)[C@H](Cc2ccc(C(=O)O)cc2)NC(=O)[C@H](Cc2ccncc2)NC(=O)CN(C)C1=O` [Myostatin_99_v40] ({CH2CO}-AE[Trp(7-aza)]Y[NMeF]I[Sar][4Pal][Phe(4-COOH)]R[NMeF]L[NMeA][NMeF][dC][dS][dS][dS][dK]-OH; thioether N-15), for which, in assay [1], the inhibition at 0.03 µM amounted to 0% and the inhibition at 0.1 µM is 0%. Moreover, in assay [2], the inhibition at 0.03 µM came out at 39% and the inhibition at 0.1 µM is 67%.
Regarding `CC[C@H](C)[C@@H]1NC(=O)[C@H](Cc2ccccc2)N(C)C(=O)[C@H](Cc2ccc(Oc3ccccc3)cc2)NC(=O)[C@H](Cc2ccc(-c3ccccn3)cc2)NC(=O)[C@H](C)NC(=O)CN(CCCC(=O)O)C(=O)CSC[C@H](C(=O)O)NC(=O)[C@H](Cc2ccccc2)N(C)C(=O)[C@H](C)N(C)C(=O)[C@H](CC(C)C)NC(=O)[C@H](Cc2ccccc2)N(C)C(=O)[C@H](CCCNC(=N)N)NC(=O)[C@H](Cc2ccc(OCC(=O)O)cc2)NC(=O)[C@H](Cc2ccccc2)NC(=O)CN(C)C1=O` [Myostatin_99_v60] ({CH2CO}-[Gly(N(CH2)3COOH)]A[X15][Tyr(Ph)][NMeF]I[Sar]FY(Carboxymethyl)R[NMeF]L[NMeA][NMeF][dC]-OH; thioether N-15), in assay [1], the inhibition at 0.03 µM worked out at 7% and the inhibition at 0.1 µM was 5%. Besides, in assay [2], the inhibition at 0.03 µM is 25% and the inhibition at 0.1 µM is 51%.
Turning to `CC[C@H](C)[C@@H]1NC(=O)[C@H](Cc2ccccc2)N(C)C(=O)[C@H](Cc2ccc(O)cc2)NC(=O)[C@H](Cc2ccc(-c3ccccc3)cc2)NC(=O)[C@H](C)NC(=O)CN(CCCC(=O)O)C(=O)CSC[C@H](C(=O)O)NC(=O)[C@H](Cc2ccccc2)N(C)C(=O)[C@H](C)N(C)C(=O)[C@H](CC(C)C)NC(=O)[C@H](Cc2ccccc2)N(C)C(=O)[C@H](CCCNC(=N)N)NC(=O)[C@H](Cc2ccc(C(N)=O)cc2)NC(=O)[C@H](Cc2ccc(C(=O)O)cc2)NC(=O)[C@H](C)N(C)C1=O` [Myostatin_99_v102] ({CH2CO}-[Gly(N(CH2)3COOH)]A[Bip]Y[NMeF]I[NMeA][Phe(4-COOH)][Phe(4-CONH2)]R[NMeF]L[NMeA][NMeF][dC]-OH; thioether N-15), in assay [1], the inhibition at 0.03 µM amounted to 0% and the inhibition at 0.1 µM stood at 0%. Also, in assay [2], the inhibition at 0.03 µM was 60% and the inhibition at 0.1 µM was 81%.
Consider `CCc1cccc(C[C@H]2C(=O)N[C@@H](C(=O)O)CSCC(=O)N(CCCC(=O)O)CC(=O)N[C@@H](C)C(=O)N[C@@H](Cc3ccc(-c4ccccc4)cc3)C(=O)N[C@@H](Cc3ccc(O)cc3)C(=O)N(C)[C@@H](Cc3ccc(O)cc3)C(=O)N[C@@H]([C@@H](C)CC)C(=O)N(C)CC(=O)N[C@@H](Cc3cccc(OCC(=O)O)c3)C(=O)N[C@@H](Cc3ccc(C(=O)O)cc3)C(=O)N[C@@H](CCCNC(=N)N)C(=O)N(C)[C@@H](Cc3ccccc3)C(=O)N[C@@H](CC(C)C)C(=O)N(C)[C@@H](C)C(=O)N2C)c1` [Myostatin_99_v113] ({CH2CO}-[Gly(N(CH2)3COOH)]A[Bip]Y[NMeY]I[Sar][Phe(3-OCH2COOH)][Phe(4-COOH)]R[NMeF]L[NMeA][X14][dC]-OH; thioether N-15), for which the inhibition at 0.03 µM stood at 0% in assay [1] and 35% in assay [2]. Also, the inhibition at 0.1 µM came to 0% in assay [1] and 70% in assay [2].
Regarding `CC[C@H](C)[C@@H]1NC(=O)[C@H](Cc2cccc(C)c2)N(C)C(=O)[C@H](Cc2ccc(O)cc2)NC(=O)[C@H](Cc2ccc(-c3ccccc3)cc2)NC(=O)[C@H](C)NC(=O)CN(CCCC(=O)O)C(=O)CSC[C@H](C(=O)O)NC(=O)[C@H](Cc2ccccc2)N(C)C(=O)[C@H](C)N(C)C(=O)[C@H](CC(C)C)NC(=O)[C@H](Cc2ccccc2)N(C)C(=O)[C@H](CCCNC(=N)N)NC(=O)[C@H](Cc2ccc(C(=O)O)cc2)NC(=O)[C@H](Cc2cccc(OCC(=O)O)c2)NC(=O)CN(C)C1=O` [Myostatin_99_v119] ({CH2CO}-[Gly(N(CH2)3COOH)]A[Bip]Y[NMePhe(3-Me)]I[Sar][Phe(3-OCH2COOH)][Phe(4-COOH)]R[NMeF]L[NMeA][NMeF][dC]-OH; thioether N-15), in assay [1], the inhibition at 0.03 µM was determined as 0% and the inhibition at 0.1 µM worked out at 0%. Also, in assay [2], the inhibition at 0.03 µM worked out at 46% and the inhibition at 0.1 µM amounted to 70%.
Regarding `CC[C@H](C)[C@@H]1NC(=O)[C@H](Cc2ccccc2)N(C)C(=O)[C@H](Cc2ccc(O)cc2)NC(=O)[C@H](Cc2c[nH]c3ccccc23)NC(=O)[C@H](C)NC(=O)CN(CCCC(=O)O)C(=O)CSC[C@H](C(=O)O)NC(=O)[C@H](Cc2ccccc2)N(C)C(=O)[C@H](C)N(C)C(=O)[C@H](CC(C)C)NC(=O)[C@H](Cc2ccccc2)N(C)C(=O)[C@H](CCCNC(=N)N)NC(=O)[C@H](Cc2ccc(OCC(=O)O)cc2)NC(=O)[C@H](Cc2cccc(OC)c2)NC(=O)[C@H](C)N(C)C1=O` [Myostatin_99_v126] ({CH2CO}-[Gly(N(CH2)3COOH)]AWY[NMeF]I[NMeA][Phe(3-OMe)]Y(Carboxymethyl)R[NMeF]L[NMeA][NMeF][dC]-OH; thioether N-15), in assay [1], the inhibition at 0.03 µM was determined as 0% and the inhibition at 0.1 µM turned out to be 0%. In assay [2], the inhibition at 0.03 µM amounted to 28% and the inhibition at 0.1 µM was determined as 68%.
